Data from the NIST ThermoML archive (doi:10.1021/je060247x).
Numbers after ± are expanded uncertainties.

Details: Liquid

CCCCn1cc[n+](C)c1C.F[P-](F)(F)(F)(F)F [1-butyl-2,3-dimethylimidazolium hexafluorophosphate]
mass density [kg/m3]
Details | 313.15 K | 323.15 K | 333.15 K | 343.15 K | 353.15 K | 363.15 K | 373.15 K | 383.15 K | 393.15 K
100 kPa | 1339.6 ± 3.4 | 1330.9 ± 3.4 | 1321.9 ± 3.3 | 1313.5 ± 3.2 | 1305.4 ± 3.2 | 1297.6 ± 3.1 | 1290.6 ± 3.1 | 1283.4 ± 3 | 1276.1 ± 3
1000 kPa | 1340 ± 3.6 | 1331.4 ± 3.5 | 1322.4 ± 3.4 | 1314.1 ± 3.4 | 1306 ± 3.3 | 1298.2 ± 3.3 | 1291.2 ± 3.2 | 1284 ± 3.2 | 1276.8 ± 3.1
2000 kPa | 1340.7 ± 3.7 | 1331.9 ± 3.7 | 1323 ± 3.6 | 1314.6 ± 3.5 | 1306.6 ± 3.5 | 1298.8 ± 3.4 | 1291.9 ± 3.4 | 1284.7 ± 3.3 | 1277.4 ± 3.3
3000 kPa | 1341.2 ± 3.9 | 1332.5 ± 3.8 | 1323.5 ± 3.7 | 1315.2 ± 3.7 | 1307.2 ± 3.6 | 1299.4 ± 3.5 | 1292.5 ± 3.5 | 1285.3 ± 3.4 | 1278.1 ± 3.4
4000 kPa | 1341.6 ± 4 | 1333.1 ± 4 | 1324.1 ± 3.9 | 1315.8 ± 3.8 | 1307.8 ± 3.8 | 1300.1 ± 3.7 | 1293.2 ± 3.6 | 1286 ± 3.6 | 1278.8 ± 3.5
5000 kPa | 1342.1 ± 4.2 | 1333.6 ± 4.1 | 1324.6 ± 4.1 | 1316.3 ± 4 | 1308.3 ± 3.9 | 1300.7 ± 3.8 | 1293.8 ± 3.8 | 1286.6 ± 3.7 | 1279.4 ± 3.7
10000 kPa | 1344.6 ± 5 | 1336.2 ± 4.9 | 1327.2 ± 4.8 | 1319.1 ± 4.7 | 1311.1 ± 4.7 | 1303.6 ± 4.6 | 1296.7 ± 4.5 | 1289.7 ± 4.4 | 1282.6 ± 4.3

CCCCCCCC[n+]1ccn(C)c1.F[B-](F)(F)F [1-methyl-3-octylimidazolium tetrafluoroborate]
mass density [kg/m3]
Details | 100 kPa | 1000 kPa | 2000 kPa | 3000 kPa | 4000 kPa | 5000 kPa | 10000 kPa
293.15 K | 1108.7 ± 1 | 1109.1 ± 1 | 1109.6 ± 1 | 1110 ± 1 | 1110.5 ± 1.1 | 1110.9 ± 1.1 | 1113.1 ± 1.2
303.15 K | 1100.7 ± 0.9 | 1101.1 ± 1 | 1101.6 ± 1 | 1102.1 ± 1 | 1102.6 ± 1 | 1103.1 ± 1.1 | 1105.4 ± 1.2
313.15 K | 1092.9 ± 0.9 | 1093.4 ± 0.9 | 1093.9 ± 1 | 1094.4 ± 1 | 1094.9 ± 1 | 1095.4 ± 1 | 1097.9 ± 1.2
323.15 K | 1085.4 ± 0.9 | 1085.9 ± 0.9 | 1086.4 ± 0.9 | 1087 ± 1 | 1087.5 ± 1 | 1088 ± 1 | 1090.6 ± 1.1
333.15 K | 1078.2 ± 0.9 | 1078.7 ± 0.9 | 1079.3 ± 0.9 | 1079.8 ± 0.9 | 1080.3 ± 1 | 1080.9 ± 1 | 1083.5 ± 1.1
343.15 K | 1071.4 ± 0.9 | 1072 ± 0.9 | 1072.5 ± 0.9 | 1073.1 ± 0.9 | 1073.7 ± 0.9 | 1074.2 ± 1 | 1076.9 ± 1.1
353.15 K | 1064.7 ± 0.9 | 1065.2 ± 0.9 | 1065.8 ± 0.9 | 1066.4 ± 0.9 | 1067 ± 0.9 | 1067.6 ± 0.9 | 1070.3 ± 1
363.15 K | 1058.6 ± 0.8 | 1059.1 ± 0.9 | 1059.8 ± 0.9 | 1060.4 ± 0.9 | 1061 ± 0.9 | 1061.6 ± 0.9 | 1064.4 ± 1
373.15 K | 1052.4 ± 0.8 | 1053 ± 0.8 | 1053.7 ± 0.9 | 1054.3 ± 0.9 | 1054.9 ± 0.9 | 1055.5 ± 0.9 | 1058.5 ± 1
383.15 K | 1046.6 ± 0.8 | 1047.2 ± 0.8 | 1047.9 ± 0.8 | 1048.5 ± 0.9 | 1049.2 ± 0.9 | 1049.8 ± 0.9 | 1052.9 ± 0.9
393.15 K | 1040.9 ± 0.8 | 1041.5 ± 0.8 | 1042.1 ± 0.8 | 1042.8 ± 0.8 | 1043.4 ± 0.9 | 1044.1 ± 0.9 | 1047.2 ± 0.9

CCCCCCn1cc[n+](C)c1.F[P-](F)(F)(F)(F)F [1-hexyl-3-methylimidazolium hexafluorophosphate]
mass density [kg/m3]
Details | 100 kPa | 1000 kPa | 2000 kPa | 3000 kPa | 4000 kPa | 5000 kPa | 10000 kPa
293.15 K | 1299.8 ± 3.1 | 1300.3 ± 3.3 | 1300.8 ± 3.4 | 1301.4 ± 3.6 | 1301.9 ± 3.7 | 1302.4 ± 3.8 | 1304.9 ± 4.6
303.15 K | 1290.6 ± 3.1 | 1291.1 ± 3.2 | 1291.7 ± 3.3 | 1292.2 ± 3.5 | 1292.7 ± 3.6 | 1293.2 ± 3.8 | 1295.8 ± 4.5
313.15 K | 1281.5 ± 3 | 1282 ± 3.1 | 1282.6 ± 3.3 | 1283.1 ± 3.4 | 1283.7 ± 3.5 | 1284.3 ± 3.7 | 1287 ± 4.4
323.15 K | 1272.7 ± 3 | 1273.2 ± 3.1 | 1273.9 ± 3.2 | 1274.5 ± 3.3 | 1275 ± 3.5 | 1275.6 ± 3.6 | 1278.5 ± 4.3
333.15 K | 1264.2 ± 2.9 | 1264.8 ± 3 | 1265.4 ± 3.1 | 1266 ± 3.3 | 1266.6 ± 3.4 | 1267.3 ± 3.5 | 1270.3 ± 4.2
343.15 K | 1256.1 ± 2.8 | 1256.7 ± 3 | 1257.3 ± 3.1 | 1258 ± 3.2 | 1258.6 ± 3.3 | 1259.2 ± 3.5 | 1262 ± 4.1
353.15 K | 1248 ± 2.8 | 1248.6 ± 2.9 | 1249.2 ± 3 | 1249.9 ± 3.1 | 1250.5 ± 3.3 | 1251.2 ± 3.4 | 1254.2 ± 4
363.15 K | 1240.6 ± 2.7 | 1241.2 ± 2.9 | 1242 ± 3 | 1242.6 ± 3.1 | 1243.3 ± 3.2 | 1244 ± 3.3 | 1247.2 ± 3.9
373.15 K | 1233.4 ± 2.7 | 1234.1 ± 2.8 | 1234.9 ± 2.9 | 1235.6 ± 3 | 1236.3 ± 3.2 | 1237 ± 3.3 | 1240.3 ± 3.9
383.15 K | 1226.4 ± 2.7 | 1227.2 ± 2.8 | 1227.9 ± 2.9 | 1228.7 ± 3 | 1229.4 ± 3.1 | 1230.1 ± 3.2 | 1233.6 ± 3.8
393.15 K | 1219.4 ± 2.6 | 1220.1 ± 2.7 | 1220.9 ± 2.8 | 1221.7 ± 2.9 | 1222.5 ± 3 | 1223.3 ± 3.2 | 1227 ± 3.7
